Test results published in PubChem BioAssay AID248 (DTP/NCI, 2004).
Values joined by “and” are separate entries in the source; they are usually repeats but may differ in a detail not shown here. Identical values can stand only once. Toxic doses and inconclusive results are not listed. No stated cut-off is given here; in the data, active means T/C of 150% or more; inactive means T/C below 125%.

System: L1210 leukemia ip in BDF1 mice, survival T/C
Assay: NCI In Vivo Anticancer Drug Screen. Data for tumor model L1210 Leukemia (intraperitoneal) in B6D2F1 (BDF1) mice
Details: endpoint: mean survival time, higher = longer survival
How it was run: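 Tumor cells were implanted, animals were treated, and survival was followed. The result divides the treated measurement by the vehicle-control measurement.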

[1] = dose: 25.0 mg/kg/injection, schedule: Q01DX009 (ip), vehicle: Klucel (hydroxypropylcellulose) (HPC)
[2] = dose: 50.0 mg/kg/injection, schedule: Q01DX009 (ip), vehicle: Klucel (hydroxypropylcellulose) (HPC)
[3] = dose: 100.0 mg/kg/injection, schedule: Q04DX003 (ip), vehicle: Klucel (hydroxypropylcellulose) (HPC)
[4] = dose: 400.0 mg/kg/injection, schedule: Q04DX003 (ip), vehicle: Klucel (hydroxypropylcellulose) (HPC)
[5] = dose: 100.0 mg/kg/injection, schedule: Q01DX001 (ip), vehicle: carboxymethylcellulose (CMC)
[6] = dose: 200.0 mg/kg/injection, schedule: Q01DX001 (ip), vehicle: carboxymethylcellulose (CMC)
[7] = dose: 10.0 mg/kg/injection, schedule: Q01DX001 (ip), vehicle: saline
[8] = dose: 100.0 mg/kg/injection, schedule: Q04DX002 (ip), vehicle: saline with Tween-80
[9] = dose: 200.0 mg/kg/injection, schedule: Q04DX002 (ip), vehicle: saline with Tween-80
[10] = dose: 100.0 mg/kg/injection, schedule: Q01DX009 (ip), vehicle: Klucel (hydroxypropylcellulose) (HPC)
[11] = dose: 200.0 mg/kg/injection, schedule: Q01DX009 (ip), vehicle: Klucel (hydroxypropylcellulose) (HPC)
[12] = dose: 200.0 mg/kg/injection, schedule: Q04DX003 (ip), vehicle: Klucel (hydroxypropylcellulose) (HPC)
[13] = dose: 400.0 mg/kg/injection, schedule: Q01DX009 (ip), vehicle: Klucel (hydroxypropylcellulose) (HPC)
[14] = dose: 100.0 mg/kg/injection, schedule: Q04DX002 (ip), vehicle: Klucel (hydroxypropylcellulose) (HPC)
[15] = dose: 200.0 mg/kg/injection, schedule: Q04DX002 (ip), vehicle: Klucel (hydroxypropylcellulose) (HPC)
[16] = dose: 400.0 mg/kg/injection, schedule: Q04DX002 (ip), vehicle: Klucel (hydroxypropylcellulose) (HPC)
[17] = dose: 100.0 mg/kg/injection, schedule: Q04DX003 (ip), vehicle: saline with Tween-80
[18] = dose: 200.0 mg/kg/injection, schedule: Q04DX003 (ip), vehicle: saline with Tween-80
[19] = dose: 400.0 mg/kg/injection, schedule: Q04DX003 (ip), vehicle: saline with Tween-80

Measured: T/C

Nc1ncnc(NC2CCCCC2)n1
inactive: dose: 6.25 mg/kg/injection, schedule: Q01DX009 (ip), vehicle: Klucel (hydroxypropylcellulose) (HPC) 100 % of control | dose: 12.5 mg/kg/injection, schedule: Q01DX009 (ip), vehicle: Klucel (hydroxypropylcellulose) (HPC) 94 % of control | [1] 97 % of control and 98 % of control | [2] 111 % of control | [3] 91 % of control | [4] 98 % of control

O=C(OCCN1C(=O)c2cccc3c(Br)ccc(c23)C1=O)OCc1ccccc1
inactive: dose: 100.0 mg/kg/injection, schedule: Q04DX002 (ip), vehicle: alcohol 103 % of control | dose: 200.0 mg/kg/injection, schedule: Q04DX002 (ip), vehicle: alcohol 100 % of control | dose: 400.0 mg/kg/injection, schedule: Q04DX002 (ip), vehicle: alcohol 100 % of control

c1ccc2c3c(cc(C4CCCC4)c2c1)CCCC3
inactive: [5] 88 % of control | [6] 91 % of control

O=[N+]([O-])c1cccc2ncsc12
inactive: dose: 100.0 mg/kg/injection, schedule: Q01DX009 (ip), vehicle: other 104 % of control | dose: 200.0 mg/kg/injection, schedule: Q01DX009 (ip), vehicle: other 107 % of control | dose: 400.0 mg/kg/injection, schedule: Q01DX009 (ip), vehicle: other 104 % of control

O=C(S)CN1C(=O)c2ccccc2C1=O
inactive: [5] 91 % of control | [6] 93 % of control | dose: 400.0 mg/kg/injection, schedule: Q01DX001 (ip), vehicle: carboxymethylcellulose (CMC) 102 % of control

CCOC(=O)CN1N=C([P+](c2ccccc2)(c2ccccc2)c2ccccc2)CC1(c1ccccc1)c1ccccc1
inactive: [7] 95 % of control | dose: 20.0 mg/kg/injection, schedule: Q01DX001 (ip), vehicle: saline 96 % of control | dose: 40.0 mg/kg/injection, schedule: Q01DX001 (ip), vehicle: saline 86 % of control

CCCCOC1=CC2C(=CCC3C2(C)C(=O)CC2(C)C(C(C)(O)C(=O)/C=C/C(C)(C)O)C(O)CC32C)C(C)(C)C1=O (centres undefined)
inactive: dose: 50.0 mg/kg/injection, schedule: Q04DX002 (ip), vehicle: saline with Tween-80 97 % of control | [8] 97 % of control | [9] 101 % of control

O=CNc1ncnn1C(=S)NCc1ccccc1
inactive: dose: 50.0 mg/kg/injection, schedule: Q01DX009 (ip), vehicle: saline 105 % of control | dose: 100.0 mg/kg/injection, schedule: Q01DX009 (ip), vehicle: saline 111 % of control

C/C=C\C(=O)OCC(C)CCC (centres undefined)
inactive: [8] 97 % of control | [9] 102 % of control

CCC(Cl)COP(=O)(OCC(Cl)CC)C(C)P(=O)(OCC(Cl)CC)OCC(Cl)CC (centres undefined)
inactive: dose: 62.5 mg/kg/injection, schedule: Q04DX003 (ip), vehicle: Klucel (hydroxypropylcellulose) (HPC) 96 % of control | dose: 125.0 mg/kg/injection, schedule: Q04DX003 (ip), vehicle: Klucel (hydroxypropylcellulose) (HPC) 97 % of control | dose: 250.0 mg/kg/injection, schedule: Q04DX003 (ip), vehicle: Klucel (hydroxypropylcellulose) (HPC) 96 % of control

COC(=O)N1C2CC=C(C)CC21 (centres undefined)
inactive: dose: 75.0 mg/kg/injection, schedule: Q01DX001 (ip), vehicle: saline 94 % of control | dose: 150.0 mg/kg/injection, schedule: Q01DX001 (ip), vehicle: saline 104 % of control | dose: 300.0 mg/kg/injection, schedule: Q01DX001 (ip), vehicle: saline 100 % of control

C/C(=N\N=C(/C)c1cccc(N)c1)c1cccc(N)c1
inactive: dose: 200.0 mg/kg/injection, schedule: Q01DX001 (ip), vehicle: saline 87 % of control | dose: 400.0 mg/kg/injection, schedule: Q01DX001 (ip), vehicle: saline 87 % of control

NC(=O)c1ccc[n+]([O-])c1
inactive: [10] 104 % of control | [3] 100 % of control | [11] 100 % of control | [12] 100 % of control | [13] 98 % of control | [4] 94 % of control

COC(=O)c1ccccc1OC(=O)c1ccccc1
inactive: dose: 100.0 mg/kg/injection, schedule: Q04DX003 (ip), vehicle: saline 105 % of control | dose: 200.0 mg/kg/injection, schedule: Q04DX003 (ip), vehicle: saline 97 % of control | dose: 400.0 mg/kg/injection, schedule: Q04DX003 (ip), vehicle: saline 105 % of control

NC(=S)NC(=S)Nc1ccccc1
inactive: [3] 103 % of control | [12] 110 % of control | [4] 106 % of control

COc1ccc(OC)c(-n2cccc2C(=O)O)c1
inactive: [14] 90 % of control | [15] 97 % of control | [16] 93 % of control

CCOP(=S)(OCC)OP(=S)(OCC)OCC
inactive: dose: 1.0 mg/kg/injection, schedule: Q01DX009 (ip), vehicle: other 108 % of control | dose: 1.0 mg/kg/injection, schedule: Q04DX003 (ip), vehicle: other 100 % of control | dose: 2.0 mg/kg/injection, schedule: Q01DX009 (ip), vehicle: other 90 % of control | dose: 2.0 mg/kg/injection, schedule: Q04DX003 (ip), vehicle: other 97 % of control | dose: 4.0 mg/kg/injection, schedule: Q04DX003 (ip), vehicle: other 100 % of control

CCCCCCCCCCCCCCCc1cccc2ccccc12
inactive: [17] 92 % of control | [18] 92 % of control | [19] 88 % of control

Brc1ccc(N2N=NC3CN(c4ccccc4)CC32)cc1 (centres undefined)
inactive: [17] 88 % of control | [18] 91 % of control | [19] 93 % of control

Nc1nnnn1C(=O)NCCCl
inactive: dose: 100.0 mg/kg/injection, schedule: Q01DX001 (ip), vehicle: Klucel (hydroxypropylcellulose) (HPC) 111 % of control | dose: 200.0 mg/kg/injection, schedule: Q01DX001 (ip), vehicle: Klucel (hydroxypropylcellulose) (HPC) 97 % of control | dose: 400.0 mg/kg/injection, schedule: Q01DX001 (ip), vehicle: Klucel (hydroxypropylcellulose) (HPC) 94 % of control

N#Cc1c(F)c(F)c(C#N)c(F)c1F
inactive: dose: 1.25 mg/kg/injection, schedule: Q01DX009 (ip), vehicle: Klucel (hydroxypropylcellulose) (HPC) 97 % of control | dose: 2.5 mg/kg/injection, schedule: Q01DX009 (ip), vehicle: Klucel (hydroxypropylcellulose) (HPC) 95 % of control | dose: 5.0 mg/kg/injection, schedule: Q01DX001 (ip), vehicle: saline 98 % of control | dose: 5.0 mg/kg/injection, schedule: Q01DX009 (ip), vehicle: Klucel (hydroxypropylcellulose) (HPC) 103 % of control | [7] 102 % of control | dose: 10.0 mg/kg/injection, schedule: Q01DX009 (ip), vehicle: Klucel (hydroxypropylcellulose) (HPC) 104 % of control

CSc1nnc(N)s1
inactive: [1] 91 % of control | [2] 94 % of control | [10] 94 % of control | [14] 94 % of control and 91 % of control | [11] 99 % of control | [15] 97 % of control and 98 % of control | [13] 98 % of control | [16] 103 % of control | dose: 800.0 mg/kg/injection, schedule: Q04DX002 (ip), vehicle: Klucel (hydroxypropylcellulose) (HPC) 87 % of control
